From patent US20260151403A1, “NEK7 DEGRADERS AND METHODS OF USE THEREOF” (Captor Therapeutics S.A., priority 2022, published 2026) come the findings set out here.

Assay [1] deals with T1, [NEK7]-[compound of formula (I)]-[CRBN/DDB1] complex (Homo sapiens, UniProt Q8TDX7+Q96SW2). In words: AlphaLISA dose response ternary complex formation assay. As to conditions: 1 μM compound; normalized to maximum signal of Compound 2 (positive control) and DMSO background; read-out: Normalized AlphaLISA ternary complex average signal at 1 μM molecule. The assay is classed as binding. Summed up: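 Biotinylated NEK7 (200 nM) on streptavidin donor beads and 6×His-CRBN/Strep-DDB1 (200 nM) on anti-His acceptor beads, each at 40 μg/ml and preincubated 30 min, then mixed and added to compound in HBS pH 7.4, 0.1% Tween-20, 1 mM DTT, 2% DMSO. After 30 min at 25 °C, AlphaLISA signal was read (ex 680/em 615 nm) and normalised to DMSO background and maximal Compound 2 signal.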
For orientation: Alpha assays give light when donor and acceptor beads are brought close together.

Assay [2] deals with T1, [NEK7]-[compound of formula (I)]-[CRBN/DDB1] complex. Kind of assay: HTRF ternary complex assay. In kind it is binding. As to conditions: dose-response, 180 min at 25° C.; read-out: HTRF ternary complex Average pEC50 by molecule (converted). Summed up: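 Mix of 24 nM NEK7, 52.8 nM 6×His-CRBN/Strep-DDB1, 3 nM streptavidin-Eu cryptate and 6.67 nM anti-6×His-d2 in PPI Europium detection buffer with 1 mM DTT, dose-response compound, 0.5% DMSO, 180 min at 25° C. TR-FRET (665/620) read, normalized to DMSO background, Hill-slope fit gave EC50/pEC50.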
In general terms: In TR-FRET formats the signal depends on donor and acceptor labels being close together.

The target in assay [3] is NEK7-HiBiT protein (Homo sapiens, UniProt Q8TDX7). In words: NEK7-HiBiT degradation assay (Nano-Glo HiBiT Lytic Assay) in HEK293 NEK7-HiBiT cells. In kind it is cell-based. The settings on record: 24 h, conc. 0.1, 1 and 10 μM tested, concentration of the table values not stated, mean of 3 technical replicates. Summed up: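 HEK293 cells with CRISPR knock-in N-terminal HiBiT-tagged NEK7 exposed to compound for 24 h at 37 °C, 5% CO2. Residual NEK7-HiBiT was read as Nano-Glo HiBiT lytic luminescence and expressed as % of DMSO control across triplicates; compounds run at 0.1, 1 and 10 μM.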
On the technique in general: With HiBiT, luminescence reflects the tagged protein that the partner subunit can reach.

Sequence of NEK7-HiBiT protein (Q8TDX7 whole entry): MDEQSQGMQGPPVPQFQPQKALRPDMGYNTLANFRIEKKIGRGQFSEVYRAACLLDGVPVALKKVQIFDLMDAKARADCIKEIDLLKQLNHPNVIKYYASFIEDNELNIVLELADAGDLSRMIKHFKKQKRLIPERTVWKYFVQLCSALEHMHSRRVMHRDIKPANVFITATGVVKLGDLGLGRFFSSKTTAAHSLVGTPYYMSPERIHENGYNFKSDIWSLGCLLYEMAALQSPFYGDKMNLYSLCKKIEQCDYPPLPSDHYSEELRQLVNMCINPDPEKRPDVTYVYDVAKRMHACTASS
Sequence of NEK7-HiBiT protein (Q96SW2 whole entry, further chain): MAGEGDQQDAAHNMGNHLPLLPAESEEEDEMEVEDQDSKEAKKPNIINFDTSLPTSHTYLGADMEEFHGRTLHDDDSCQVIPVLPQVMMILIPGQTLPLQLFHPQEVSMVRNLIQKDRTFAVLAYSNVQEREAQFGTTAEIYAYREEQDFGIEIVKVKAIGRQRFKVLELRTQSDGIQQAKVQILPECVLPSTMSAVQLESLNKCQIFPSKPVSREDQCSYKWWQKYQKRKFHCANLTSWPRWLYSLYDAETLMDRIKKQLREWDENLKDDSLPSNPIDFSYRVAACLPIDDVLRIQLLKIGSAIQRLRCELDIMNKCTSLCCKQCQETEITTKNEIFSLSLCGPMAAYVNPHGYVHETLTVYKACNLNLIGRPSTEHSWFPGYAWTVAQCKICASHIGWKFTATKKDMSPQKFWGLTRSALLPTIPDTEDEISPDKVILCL
Sequence of NEK7-HiBiT protein (Q16531 whole entry partner): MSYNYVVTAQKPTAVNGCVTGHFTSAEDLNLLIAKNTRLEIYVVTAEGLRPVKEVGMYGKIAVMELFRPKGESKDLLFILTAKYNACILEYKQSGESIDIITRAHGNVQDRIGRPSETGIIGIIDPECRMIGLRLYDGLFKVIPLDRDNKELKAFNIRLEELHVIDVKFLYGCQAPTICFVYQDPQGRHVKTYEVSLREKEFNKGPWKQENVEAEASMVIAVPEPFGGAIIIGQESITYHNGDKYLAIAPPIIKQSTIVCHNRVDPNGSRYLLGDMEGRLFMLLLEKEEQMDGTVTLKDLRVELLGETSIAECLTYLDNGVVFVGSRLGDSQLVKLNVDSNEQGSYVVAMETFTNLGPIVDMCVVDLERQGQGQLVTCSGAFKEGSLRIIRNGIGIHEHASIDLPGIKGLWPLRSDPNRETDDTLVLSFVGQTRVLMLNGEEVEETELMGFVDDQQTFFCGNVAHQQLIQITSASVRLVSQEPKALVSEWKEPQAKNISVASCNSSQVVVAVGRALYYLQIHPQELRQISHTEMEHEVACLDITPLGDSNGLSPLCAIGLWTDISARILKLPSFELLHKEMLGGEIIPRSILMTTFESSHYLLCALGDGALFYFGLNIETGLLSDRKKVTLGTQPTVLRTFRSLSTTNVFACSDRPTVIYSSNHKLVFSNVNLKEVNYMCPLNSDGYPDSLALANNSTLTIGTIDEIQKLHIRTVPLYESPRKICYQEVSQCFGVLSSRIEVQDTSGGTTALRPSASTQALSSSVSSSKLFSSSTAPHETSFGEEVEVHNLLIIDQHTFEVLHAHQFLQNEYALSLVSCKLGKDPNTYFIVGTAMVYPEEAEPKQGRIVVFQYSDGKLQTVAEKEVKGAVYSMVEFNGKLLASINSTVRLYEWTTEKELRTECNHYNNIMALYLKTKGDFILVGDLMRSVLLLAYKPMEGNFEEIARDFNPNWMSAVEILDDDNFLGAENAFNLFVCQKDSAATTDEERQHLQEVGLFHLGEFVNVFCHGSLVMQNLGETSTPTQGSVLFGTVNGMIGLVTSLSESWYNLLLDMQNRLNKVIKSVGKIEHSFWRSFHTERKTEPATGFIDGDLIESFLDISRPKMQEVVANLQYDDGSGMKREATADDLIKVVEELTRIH
T1 sequence (Q8TDX7 whole entry): as the sequence (Q8TDX7 whole entry) above
T1 sequence (Q96SW2 whole entry): as the sequence (Q96SW2 whole entry, further chain) above
T1 sequence (Q16531 whole entry partner): as the sequence (Q16531 whole entry partner) above

Consider `O=C1CCC(N2Cc3cc(-c4ccccn4)ccc3C2=O)C(=O)N1` (stereo not drawn) [2(2), 3-(1-oxo-5-(pyridin-2-yl)isoindolin-2-yl)piperidine-2,6-dione], for which the activation at 1 µM in assay [1] is over 80%. The EC50 in assay [2] is 316 to 1000 nM. The “Levels of NEK7-HiBiT Protein (as a % of DMSO control)” value (“Levels … (as a % of DMSO control)” below) in assay [3] was “B (Levels of NEK7-HiBiT Protein > 25% and ≤50%)”.
`O=C1CCC(N2Cc3cc(-c4ccc(-c5ccccc5)cn4)ccc3C2=O)C(=O)N1` (stereo not drawn) [4(2), 3-(1-oxo-5-(5-phenylpyridin-2-yl)isoindolin-2-yl)piperidine-2,6-dione]: the activation at 1 µM in assay [1] was over 80%. Further, the EC50 in assay [2] was 100 to 316 nM. For the same compound, in assay [3], the “Levels … (as a % of DMSO control)” value is reported as “A (Levels of NEK7-HiBiT Protein ≤ 25%)”.
On to `O=C1CCC(N2Cc3cc(C4CCCCN4)ccc3C2=O)C(=O)N1` (stereo not drawn) [Compound 2, 3-(1-oxo-5-(piperidin-2-yl)isoindolin-2-yl)piperidine-2,6-dione], for which the activation at 1 µM in assay [1] is over 80%. The EC50 in assay [2] was 316 to 1000 nM. In addition, the “Levels … (as a % of DMSO control)” value in assay [3] is “A (Levels of NEK7-HiBiT Protein ≤ 25%)”.
Regarding `Cc1c(C2CCCCN2)ccc2c1CN(C1CCC(=O)NC1=O)C2=O` (stereo not drawn) [Compound 19, 3-(4-methyl-1-oxo-5-(piperidin-2-yl)isoindolin-2-yl)piperidine-2,6-dione], in assay [1], the activation at 1 µM was under 10%. Further, in assay [2], the EC50 is over 3160 nM. Moreover, in assay [3], the “Levels … (as a % of DMSO control)” value was “B (Levels of NEK7-HiBiT Protein > 25% and ≤50%)”.
Turning to `O=C1CCC(N2Cc3cc(C4CCCCN4)c(F)cc3C2=O)C(=O)N1` (stereo not drawn) [Compound 23, 3-(6-fluoro-1-oxo-5-(piperidin-2-yl)isoindolin-2-yl)piperidine-2,6-dione], the activation at 1 µM in assay [1] was under 10%. The EC50 in assay [2] was over 3160 nM. The “Levels … (as a % of DMSO control)” value in assay [3] was “B (Levels of NEK7-HiBiT Protein > 25% and ≤50%)”.
Turning to `CC1c2cc(C3CCCCN3)ccc2C(=O)N1C1CCC(=O)NC1=O` (stereo not drawn) [Compound 25, 3-(3-methyl-1-oxo-5-(piperidin-2-yl)isoindolin-2-yl)piperidine-2,6-dione], the activation at 1 µM in assay [1] is over 80%. In addition, in assay [2], the EC50 is 316 to 1000 nM. In addition, the “Levels … (as a % of DMSO control)” value in assay [3] is given as “A (Levels of NEK7-HiBiT Protein ≤ 25%)”.
On the same counts, the results for `CC1c2cc(C3CCCCO3)ccc2C(=O)N1C1CCC(=O)NC1=O` (stereo not drawn) [Compound 64, 3-(3-methyl-1-oxo-5-(tetrahydro-2H-pyran-2-yl)isoindolin-2-yl)piperidine-2,6-dione] are over 80%, 316 to 1000 nM and “A (Levels of NEK7-HiBiT Protein ≤ 25%)”.
